Results: patent publication US20050209278A1, “Piperidinyl- and piperazinyl-sulfonylmethyl hydroxamic acids and their use as protease inhibitors” (priority 2002, published 2005)
Counter-ions that a name gives are not always drawn. Like-named read-outs stand apart in the source and are kept apart here.

Assays:
Type in all cases: biochemical
MMP-1 = molecular target: T1, MMP-1 (Homo sapiens, UniProt P03956); assay: MMP-1 inhibition (in vitro Ki)
T1 construct: made in house; host or cells: MMP-1-transfected HT-1080 cells (spent media)
T1 sequence (P03956 100-469): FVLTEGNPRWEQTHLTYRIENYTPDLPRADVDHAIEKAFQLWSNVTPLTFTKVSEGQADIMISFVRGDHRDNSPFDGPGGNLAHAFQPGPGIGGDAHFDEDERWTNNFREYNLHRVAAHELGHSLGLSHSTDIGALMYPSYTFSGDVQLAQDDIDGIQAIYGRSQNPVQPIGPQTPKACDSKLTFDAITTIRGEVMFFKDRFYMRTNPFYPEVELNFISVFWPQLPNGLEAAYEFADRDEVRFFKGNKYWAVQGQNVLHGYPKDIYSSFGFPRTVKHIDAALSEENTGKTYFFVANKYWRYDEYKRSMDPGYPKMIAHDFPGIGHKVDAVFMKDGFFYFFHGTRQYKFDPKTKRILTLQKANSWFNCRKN

MMP-2 = molecular target: T2, MMP-2 (Homo sapiens, UniProt P08253); assay: MMP-2 inhibition (in vitro Ki)
T2 construct: made in house; host or cells: MMP-2-transfected p2AHT2 cells
T2 sequence (P08253 110-660): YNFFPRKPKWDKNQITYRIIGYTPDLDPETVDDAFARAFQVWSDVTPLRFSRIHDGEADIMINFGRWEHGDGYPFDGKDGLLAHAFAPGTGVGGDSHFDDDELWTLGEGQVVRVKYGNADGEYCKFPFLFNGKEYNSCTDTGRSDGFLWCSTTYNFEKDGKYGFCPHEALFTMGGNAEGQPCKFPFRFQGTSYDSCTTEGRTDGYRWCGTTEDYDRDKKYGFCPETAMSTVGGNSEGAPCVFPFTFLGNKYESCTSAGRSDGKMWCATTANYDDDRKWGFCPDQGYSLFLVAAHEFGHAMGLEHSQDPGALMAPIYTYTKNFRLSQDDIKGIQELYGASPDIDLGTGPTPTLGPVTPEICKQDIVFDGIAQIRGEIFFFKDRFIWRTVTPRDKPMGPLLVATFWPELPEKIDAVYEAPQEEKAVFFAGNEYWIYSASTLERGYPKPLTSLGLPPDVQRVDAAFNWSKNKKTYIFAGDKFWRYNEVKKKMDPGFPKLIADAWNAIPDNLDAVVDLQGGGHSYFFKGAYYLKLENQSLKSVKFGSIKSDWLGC

MMP-13 = molecular target: T3, MMP-13 (Homo sapiens, UniProt P45452); assay: MMP-13 inhibition (in vitro Ki)
T3 construct: made in house; host or cells: baculovirus / insect cells

MMP-9 = molecular target: T4, MMP-9 (Homo sapiens, UniProt P14780); assay: MMP-9 inhibition (in vitro Ki)
T4 construct: made in house; host or cells: MMP-9-transfected HT1080 cells (spent media)

MMP-14 = molecular target: T5, MMP-14 (Homo sapiens, UniProt P50281); assay: MMP-14 inhibition (in vitro Ki)
T5 construct: The catalytic domain enzyme was expressed in E. coli inclusion bodies, solubilized in urea; made in house

[1] = Table 9, read-out: MMP-1 Ki (IC-50)
[2] = Table 9, read-out: MMP-2 Ki (IC-50)
[3] = Table 9, read-out: MMP-13 Ki (IC-50)
[4] = Table 9, read-out: MMP-9 Ki (IC-50)
[5] = Table 9, read-out: MMP-14 Ki (IC-50)

T4 sequence (P14780 107-707 limits assumed): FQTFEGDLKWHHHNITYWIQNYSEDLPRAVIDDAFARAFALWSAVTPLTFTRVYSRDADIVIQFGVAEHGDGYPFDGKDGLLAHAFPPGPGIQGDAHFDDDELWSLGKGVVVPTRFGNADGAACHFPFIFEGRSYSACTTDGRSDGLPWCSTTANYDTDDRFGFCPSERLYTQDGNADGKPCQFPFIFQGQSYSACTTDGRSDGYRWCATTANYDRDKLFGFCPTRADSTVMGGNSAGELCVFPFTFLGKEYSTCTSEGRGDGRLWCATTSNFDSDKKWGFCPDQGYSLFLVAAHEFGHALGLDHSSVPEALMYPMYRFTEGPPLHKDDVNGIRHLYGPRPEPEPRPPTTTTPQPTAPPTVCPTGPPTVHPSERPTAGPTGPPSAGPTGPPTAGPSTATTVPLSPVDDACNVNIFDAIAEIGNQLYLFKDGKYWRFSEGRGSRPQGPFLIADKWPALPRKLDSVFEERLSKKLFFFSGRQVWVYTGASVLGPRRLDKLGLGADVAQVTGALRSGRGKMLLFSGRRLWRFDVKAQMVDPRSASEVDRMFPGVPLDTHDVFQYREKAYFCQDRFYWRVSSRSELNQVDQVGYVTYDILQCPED

| SMILES | Ki (MMP-1; Table 8, read-out: MMP-1 Ki) [nM] | Ki (MMP-2; Table 8, read-out: MMP-2 Ki) [nM] | Ki (MMP-13; Table 8, read-out: MMP-13 Ki) [nM] | Ki (MMP-9; Table 8, read-out: MMP-9 Ki) [nM] | Ki (MMP-14; Table 8, read-out: MMP-14 Ki) [nM] | Ki (MMP-1; [1]) [nM] | Ki (MMP-2; [2]) [nM] | Ki (MMP-13; [3]) [nM] | Ki (MMP-9; [4]) [nM] | Ki (MMP-14; [5]) [nM] |
| --- | --- | --- | --- | --- | --- | --- | --- | --- | --- | --- |
| O=C(NO)C1(S(=O)(=O)N2CCC(c3ccc(OCC(F)(F)C(F)F)cn3)CC2)CCOCC1 [Example A59, N-hydroxy-4-({4-[5-(2,2,3,3-tetrafluoropropoxy)pyridin-2-yl]piperidin-1-yl}sulfonyl)tetrahydro-2H-pyran-4-carboxamide Hydrochloride] | 1660 | 0.76 | 0.62 | 1.54 | 5150 | – | – | – | – | – |
| CCC(CC)(C(=O)NO)S(=O)(=O)N1CCC(c2ccc(CCC(F)(F)C(F)(F)F)cn2)CC1 [Example A60, 2-ethyl-N-hydroxy-2-({4-[5-(3,3,4,4,4-pentafluorobutyl)pyridin-2-yl]piperidin-1-yl}sulfonyl)butanamide Hydrochloride] | 9180 | 1.23 | 0.4 | 0.63 | 6070 | – | – | – | – | – |
| COCCC(CCOC)(C(=O)NO)S(=O)(=O)N1CCC(c2ccc(CCC(F)(F)C(F)(F)F)cn2)CC1 [Example A61, N-hydroxy-4-methoxy-2-(2-methoxyethyl)-2-({4-[5-(3,3,4,4,4-pentafluorobutyl)pyridin-2-yl]piperidin-1-yl}sulfonyl)butanamide Hydrochloride] | 3530 | 0.98 | 0.16 | 0.38 | 4170 | – | – | – | – | – |
| O=C(NO)C1(S(=O)(=O)N2CCN(c3ccc(CCCC(F)(F)F)c(F)c3)CC2)CCN(C2CC2)CC1 [Example A62, 1-cyclopropyl-4-({4-[3-fluoro-4-(4,4,4-trifluorobutyl)phenyl]piperazin-1-yl}sulfonyl)-N-hydroxypiperidine-4-carboxamide Hydrochloride] | > 10000 | 0.73 | 0.56 | 1.74 | 9050 | – | – | – | – | – |
| CC(F)(F)CCc1ccc(C2CCN(S(=O)(=O)C3(C(=O)NO)CCOCC3)CC2)nc1 [Example A63, 4-({4-[5-(3,3-difluorobutyl)pyridin-2-yl]piperidin-1-yl}sulfonyl)-N-hydroxytetrahydro-2H-pyran-4-carboxamide Hydrochloride] | 4370 | 0.5 | 0.39 | 0.22 | 1840 | – | – | – | – | – |
| O=C(NO)C1(S(=O)(=O)N2CCC(CCCCc3nc(-c4ccc(OC(F)(F)F)cc4)no3)CC2)CCOCC1 [Example A64, N-hydroxy-4-{[4-(4-{3-[4-(trifluoromethoxy)phenyl]-1,2,4-oxadiazol-5-yl}butyl)piperidin-1-yl]sulfonyl}tetrahydro-2H-pyran-4-carboxamide] | 8880 | 63.8 | 0.51 | 273 | > 10000 | – | – | – | – | – |
| O=C(NO)C1(S(=O)(=O)N2CCC(c3cnc(CCC(F)(F)C(F)(F)F)cn3)CC2)CCOCC1 [Example A65, N-hydroxy-4-({4-[5-(3,3,4,4,4-pentafluorobutyl)pyrazin-2-yl]piperidin-1-yl}sulfonyl)tetrahydro-2H-pyran-4-carboxamide] | > 10000 | 2.15 | 0.47 | 0.19 | 3870 | – | – | – | – | – |
| COCCC(C(=O)NO)S(=O)(=O)N1CCC(c2ccc(CCC(F)(F)C(F)(F)F)cc2)CC1 (stereo not shown) [Example A66, N-hydroxy-4-methoxy-2-({4-[4-(3,3,4,4,4-pentafluorobutyl)phenyl]piperidin-1-yl}sulfonyl)butanamide] | > 10000 | 2.15 | 1.28 | 1.15 | 9640 | – | – | – | – | – |
| O=C(NO)C1(S(=O)(=O)N2CCC(c3cnc(OCCC4CC4)cn3)CC2)CCOCC1 [Example A67, 4-({4-[5-(2-cyclopropylethoxy)pyrazin-2-yl]piperidin-1-yl}sulfonyl)-N-hydroxytetrahydro-2H-pyran-4-carboxamide] | 4450 | 0.66 | 0.22 | 0.07 | 1350 | – | – | – | – | – |
| O=C(NO)C1(S(=O)(=O)N2CCC(c3cnc(CCC(F)(F)F)cn3)CC2)CCOCC1 [Example A72] | – | – | – | – | – | > 10000 | 3.8 | 2 | 1.4 | > 10000 |
| CC1(C)O[C@H]2C[C@@](C(=O)NO)(S(=O)(=O)N3CCC(c4ccc(CCC(F)(F)C(F)(F)F)cn4)CC3)C[C@H]2O1 [Example A73] | – | – | – | – | – | 716 | 0.22 | 0.09 | 0.16 | 140 |
| O=C(CCCCC1CCN(S(=O)(=O)C2(C(=O)NO)CCOCC2)CC1)N1CCc2ccccc2C1 [Example A74] | – | – | – | – | – | 512 | 21.8 | 0.18 | 65.8 | 7960 |
| O=C(/C=C/C=C/C1CCN(S(=O)(=O)C2(C(=O)NO)CCOCC2)CC1)N1CCc2ccccc2C1 [Example A75] | – | – | – | – | – | 6150 | 228 | 0.41 | 501 | > 10000 |
| O=C(/C=C/C=C/C1CCN(S(=O)(=O)C2(C(=O)NO)CCOCC2)CC1)N1CCN(c2ccccc2)CC1 [Example A76] | – | – | – | – | – | > 10000 | 356 | 6.79 | 1780 | > 10000 |
| CC(C)CN(C)C(=O)/C=C/C=C/C1CCN(S(=O)(=O)C2(C(=O)NO)CCOCC2)CC1 [Example A77] | – | – | – | – | – | 6200 | 1100 | 6.79 | 5910 | > 10000 |
| O=C(/C=C/C=C/C1CCN(S(=O)(=O)C2(C(=O)NO)CCOCC2)CC1)N1CCCCC1 [Example A78] | – | – | – | – | – | 2420 | 172 | 0.52 | 428 | > 10000 |
| CN(C(=O)/C=C/C=C/C1CCN(S(=O)(=O)C2(C(=O)NO)CCOCC2)CC1)C1CCCCC1 [Example A79] | – | – | – | – | – | > 10000 | 2450 | 5.94 | > 10000 | > 10000 |
| O=C(/C=C/C=C/C1CCN(S(=O)(=O)C2(C(=O)NO)CCOCC2)CC1)N1CCc2ccccc21 [Example A80] | – | – | – | – | – | 5450 | 239 | 0.389 | 1890 | > 10000 |
| O=C(/C=C/C=C/C1CCN(S(=O)(=O)C2(C(=O)NO)CCOCC2)CC1)N1C[C@H]2CCCC[C@H]2C1 [Example A81] | – | – | – | – | – | 4440 | 213 | 0.92 | 274 | > 10000 |
| O=C(/C=C/C=C/C1CCN(S(=O)(=O)C2(C(=O)NO)CCOCC2)CC1)N1Cc2ccccc2C1 [Example A82] | – | – | – | – | – | > 10000 | 1080 | 0.901 | 8280 | > 10000 |
| C#CCN(C)C(=O)CCCCC1CCN(S(=O)(=O)C2(C(=O)NO)CCOCC2)CC1 [Example A83] | – | – | – | – | – | 277 | 60 | 1.58 | 382 | > 10000 |
| O=C(NO)C(CC1CC1)(CC1CC1)S(=O)(=O)N1CCC(c2ccc(CCC(F)(F)F)cn2)CC1 [Example A84] | – | – | – | – | – | 9770 | 2.88 | 1.82 | 0.738 | 5390 |
| O=C(CCCCC1CCN(S(=O)(=O)C2(C(=O)NO)CCOCC2)CC1)N1CCOCC1 [Example A85] | – | – | – | – | – | 3420 | 82.3 | 3 | 553 | > 10000 |
| CNC(=O)CCCCC1CCN(S(=O)(=O)C2(C(=O)NO)CCOCC2)CC1 [Example A86] | – | – | – | – | – | 516 | 23.8 | 8.19 | 307 | 7540 |
| O=C(CCCCC1CCN(S(=O)(=O)C2(C(=O)NO)CCOCC2)CC1)N1Cc2ccccc2C1 [Example A87] | – | – | – | – | – | 927 | 17.2 | 0.01 | 107 | > 10000 |
| O=C(CCCCC1CCN(S(=O)(=O)C2(C(=O)NO)CCOCC2)CC1)N1CC2CCCCC2C1 (stereo not shown) [Example A88] | – | – | – | – | – | 2780 | 38 | 2.01 | 50.7 | 5360 |
